Series [1] relates to Botryotinia fuckeliana (Botrytis cinerea). Nature of the series: Botryotinia fuckeliana (Botrytis cinerea) / liquid culture (Gray mould). Type of series: cell-based. To be noted: growth inhibition photometrically 3-4 days after application, compared to untreated control.
For series [2], the system named is Glomerella lagenarium (Colletotrichum lagenarium). As to the kind of experiment: Glomerella lagenarium (Colletotrichum lagenarium) / liquid culture (Anthracnose). As to conditions: Colletotrichum orbiculare, growth inhibition photometrically 3-4 days after application, compared to untreated control. It counts as cell-based.
Another series relates to Fusarium culmorum. Nature of the series: microbe, parasite or virus in culture. It counts as cell-based. To be noted: read-out: control of Fusarium culmorum.
A further series deals with Gaeumannomyces graminis. Nature of the series: Gaeumannomyces graminis / liquid culture (Take-all of cereals). It counts as cell-based. To be noted: growth inhibition photometrically 4-5 days after application, compared to untreated control.
The test system of series [3] is Monographella nivalis (Microdochium nivale). As to the kind of experiment: Monographella nivalis (Microdochium nivale) / liquid culture (foot rot cereals). To be noted: 96 h, growth inhibition photometrically 4-5 days after application, compared to untreated control. It counts as cell-based.
The subject of series [4] is Mycosphaerella graminicola (Septoria tritici). Nature of the series: Mycosphaerella graminicola (Septoria tritici) / liquid culture (Septoria blotch). It counts as cell-based. As to conditions: Zymoseptoria tritici, growth inhibition photometrically 4-5 days after application, compared to untreated control.
Series [5] has as its system Magnaporthe grisea (Pyricularia oryzae). As to the kind of experiment: whole plant or invertebrate. Type of series: in vivo. As to conditions: foliar, read-out: control of Magnaporthe grisea.
The test system is the same in series [6]. As to the kind of experiment: microbe, parasite or virus in culture. Type of series: cell-based. To be noted: read-out: control of Magnaporthe grisea.
A further series deals with Sclerotinia sclerotiorum. As to the kind of experiment: Sclerotinia sclerotiorum / liquid culture (cottony rot). To be noted: read-out: control of Sclerotinia sclerotiorum.

Description for Sclerotinia sclerotiorum: Sclerotinia sclerotiorum/Liquid Culture (Cottony Rot)
Mycelia fragments of a newly grown liquid culture of the fungus are directly mixed into 5 nutrient broth (Vogels broth). After placing a (DMSO) solution of test compound into a microtiter plate (96-well format) the nutrient broth containing the fungal material is added. The test plates are incubated at 24° C. and the inhibition of growth is determined photometrically 3-4 days after application.

The melting point is the temperature of the solid-liquid transition. `Cc1c(F)ccc2c(C3=NC(C)(C)C(F)(F)c4ccccc43)cnn12` [Compound E-88, 4,4-difluoro-1-(6-fluoro-7-methyl-pyrazolo[1,5-a]pyridin-3-yl)-3,3-dimethyl-isoquinoline] registered a melting point of 115 to 118 °C. The molecule further registered an inhibition of growth at 20 ppm in series [1] of at least 80%. For the same molecule, in series [2], the inhibition of growth at 20 ppm is at least 80%. Moreover, the inhibition of growth at 20 ppm in the series with Fusarium culmorum was at least 80%. This molecule also returned an inhibition of growth at 20 ppm with Gaeumannomyces graminis of at least 80%. Also, in [3], the inhibition of growth at 20 ppm is at least 80%. The same molecule showed an inhibition of growth at 20 ppm in series [4] of at least 80%. In series [5], the pest or weed control at 200 ppm was at least 50%. In [6], the inhibition of growth at 60 ppm is at least 80%. Moreover, in the series with Sclerotinia sclerotiorum, the inhibition of growth at 20 ppm is at least 80%.
Turning to `CC1(C)N=C(c2cnc3cc(I)ccn23)c2cccc(F)c2C1(C)C` [Compound E-44, 5-fluoro-1-(7-iodoimidazo[1,2-a]pyridin-3-yl)-3,3,4,4-tetramethyl-isoquinoline], the inhibition of growth at 20 ppm (in series [1]; in [2]; with Fusarium culmorum; in [3]; in series [4]) was at least 80% in each case.
Turning to `CC1(C)N=C(c2cnn3ccccc23)c2ccccc2C1(F)F` [Compound E-80, 4,4-difluoro-3,3-dimethyl-1-pyrazolo[1,5-a]pyridin-3-yl-isoquinoline], the melting point is 78 to 82 °C. Also, the inhibition of growth at 20 ppm in series [1] is at least 80%. In addition, the inhibition of growth at 20 ppm in series [2] is at least 80%. The inhibition of growth at 20 ppm in the series on Fusarium culmorum is at least 80%. This molecule showed an inhibition of growth at 20 ppm with Gaeumannomyces graminis of at least 80%. Moreover, in series [3], the inhibition of growth at 20 ppm was at least 80%. The molecule also returned an inhibition of growth at 20 ppm in series [4] of at least 80%. The inhibition of growth at 60 ppm in series [6] was at least 80%. The inhibition of growth at 20 ppm with Sclerotinia sclerotiorum is at least 80%.
For `Cc1c(Cl)ccc2c(C3=NC(C)(C)C(F)(F)c4ccccc43)cnn12` [Compound E-91, 1-(6-chloro-7-methyl-pyrazolo[1,5-a]pyridin-3-yl)-4,4-difluoro-3,3-dimethyl-isoquinoline], the melting point was 166 to 168 °C. The inhibition of growth at 20 ppm in series [1] is at least 80%. In series [2], the inhibition of growth at 20 ppm is at least 80%. Moreover, the inhibition of growth at 20 ppm with Fusarium culmorum is at least 80%. Further, the inhibition of growth at 20 ppm in the series with Gaeumannomyces graminis is at least 80%. Besides, the inhibition of growth at 20 ppm in series [3] is at least 80%. Also, the pest or weed control at 200 ppm in series [5] was at least 50%. Further, the inhibition of growth at 60 ppm in series [6] is at least 80%. The inhibition of growth at 20 ppm with Sclerotinia sclerotiorum is at least 80%.
On to `CCc1ccc2c(C3=NC(C)(C)C(F)(F)c4ccccc43)cnn2c1` [Compound E-86, 1-(6-ethylpyrazolo[1,5-a]pyridin-3-yl)-4,4-difluoro-3,3-dimethyl-isoquinoline], for which the inhibition of growth at 20 ppm (in series [1]; in series [2]; with Fusarium culmorum; in the series on Gaeumannomyces graminis; in series [4]; in the series on Sclerotinia sclerotiorum) was at least 80% throughout. In series [5], the pest or weed control at 200 ppm was at least 50%. Moreover, in series [6], the inhibition of growth at 60 ppm was at least 80%.
Molecule `CC1(C)N=C(c2cnn3c(Cl)cccc23)c2ccccc2C1(F)F` [Compound E-93, 1-(7-chloropyrazolo[1,5-a]pyridin-3-yl)-4,4-difluoro-3,3-dimethyl-isoquinoline] showed a melting point of 129 to 132 °C. For the same molecule, in series [1], the inhibition of growth at 20 ppm was at least 80%. Moreover, the inhibition of growth at 20 ppm in series [2] was at least 80%. The inhibition of growth at 20 ppm in the series on Fusarium culmorum is at least 80%. For the same molecule, in series [3], the inhibition of growth at 20 ppm was at least 80%. In series [4], the inhibition of growth at 20 ppm is at least 80%. Besides, the pest or weed control at 200 ppm in series [5] was at least 50%. The inhibition of growth at 60 ppm in series [6] was at least 80%. Besides, the inhibition of growth at 20 ppm in the series with Sclerotinia sclerotiorum is at least 80%.
Regarding `CC1(C)N=C(c2cnc3c(C4CC4)cccn23)c2cccc(F)c2C1(C)C` [Compound E-22, 1-(8-cyclopropylimidazo[1,2-a]pyridin-3-yl)-5-fluoro-3,3,4,4-tetramethyl-isoquinoline], the inhibition of growth at 20 ppm in series [1], in series [2], in series [3] and in [4] was at least 80% in each case.
Consider `Cc1ccc2c(C3=NC(C)(C)C(F)(F)c4ccccc43)cnn2c1` [Compound E-83, 4,4-difluoro-3,3-dimethyl-1-(6-methylpyrazolo[1,5-a]pyridin-3-yl)isoquinoline], for which the melting point lay in the range of 105 to 107 °C. The same molecule had an inhibition of growth at 20 ppm in series [1] of at least 80%. In addition, the inhibition of growth at 20 ppm in series [2] was at least 80%. For the same molecule, in the series with Fusarium culmorum, the inhibition of growth at 20 ppm is at least 80%. The molecule also registered an inhibition of growth at 20 ppm in the series with Gaeumannomyces graminis of at least 80%. Besides, the inhibition of growth at 20 ppm in series [3] is at least 80%. Further, in series [4], the inhibition of growth at 20 ppm is at least 80%. Besides, the pest or weed control at 200 ppm in series [5] was at least 50%. Besides, the inhibition of growth at 60 ppm in [6] is at least 80%. Moreover, the inhibition of growth at 20 ppm in the series on Sclerotinia sclerotiorum was at least 80%.
For `CC1(C)N=C(c2cnn3cc(Br)ccc23)c2ccccc2C1=O` [Compound E-82, 1-(6-bromopyrazolo[1,5-a]pyridin-3-yl)-3,3-dimethyl-isoquinolin-4-one], the melting point was in the range of 147 to 149 °C. The molecule further registered an inhibition of growth at 20 ppm in series [1] of at least 80%. The inhibition of growth at 20 ppm in series [2] was at least 80%. In addition, the inhibition of growth at 20 ppm in the series on Fusarium culmorum is at least 80%. This molecule also yielded an inhibition of growth at 20 ppm with Gaeumannomyces graminis of at least 80%. Moreover, the inhibition of growth at 20 ppm in series [3] was at least 80%. In [4], the inhibition of growth at 20 ppm was at least 80%. Also, in series [6], the inhibition of growth at 60 ppm was at least 80%. The inhibition of growth at 20 ppm in the series on Sclerotinia sclerotiorum is at least 80%.
`CC1(C)N=C(c2cnn3cc(Br)ccc23)c2ccccc2C1(F)F` [Compound E-81, 1-(6-bromopyrazolo[1,5-a]pyridin-3-yl)-4,4-difluoro-3,3-dimethyl-isoquinoline] had a melting point of 127 to 129 °C. In series [1], this molecule had an inhibition of growth at 20 ppm of at least 80%. The inhibition of growth at 20 ppm in series [2] was at least 80%. In addition, the inhibition of growth at 20 ppm in the series with Fusarium culmorum is at least 80%. Also, the inhibition of growth at 20 ppm in the series on Gaeumannomyces graminis is at least 80%. In [3], this molecule returned an inhibition of growth at 20 ppm of at least 80%. The same molecule gave an inhibition of growth at 20 ppm in series [4] of at least 80%. The pest or weed control at 200 ppm in series [5] was at least 50%. For the same molecule, the inhibition of growth at 60 ppm in series [6] was at least 80%. Besides, the inhibition of growth at 20 ppm in the series with Sclerotinia sclerotiorum was at least 80%.
Take `Cc1cccn2ncc(C3=NC(C)(C)C(F)(F)c4ccccc43)c12` [Compound E-69, 4,4-difluoro-3,3-dimethyl-1-(4-methylpyrazolo[1,5-a]pyridin-3-yl)isoquinoline]: the melting point lay within 113 to 114 °C. This molecule also returned an inhibition of growth at 20 ppm in series [1] of at least 80%. The same molecule came in with an inhibition of growth at 20 ppm in [2] of at least 80%. Moreover, the inhibition of growth at 20 ppm in the series with Fusarium culmorum was at least 80%. The molecule further gave an inhibition of growth at 20 ppm with Gaeumannomyces graminis of at least 80%. In series [3], the inhibition of growth at 20 ppm is at least 80%. For the same molecule, the pest or weed control at 200 ppm in [5] is at least 50%. For the same molecule, the inhibition of growth at 60 ppm in [6] was at least 80%. For the same molecule, the inhibition of growth at 20 ppm with Sclerotinia sclerotiorum was at least 80%.
Regarding `CC1(C)N=C(c2cnn3cc(Cl)ccc23)c2ccccc2C1(F)F` [Compound E-87, 1-(6-chloropyrazolo[1,5-a]pyridin-3-yl)-4,4-difluoro-3,3-dimethyl-isoquinoline], the melting point was in the range of 113 to 118 °C. The same molecule gave an inhibition of growth at 20 ppm in [1] of at least 80%. In addition, in series [2], the inhibition of growth at 20 ppm was at least 80%. Further, the inhibition of growth at 20 ppm in the series on Fusarium culmorum was at least 80%. Further, the inhibition of growth at 20 ppm in the series with Gaeumannomyces graminis is at least 80%. Further, the inhibition of growth at 20 ppm in [4] is at least 80%. Besides, the pest or weed control at 200 ppm in [5] is at least 50%. Besides, in series [6], the inhibition of growth at 60 ppm is at least 80%. The inhibition of growth at 20 ppm in the series with Sclerotinia sclerotiorum is at least 80%.
As to `Cc1cccn2c(C3=NC(C)(C)C(F)(F)c4c(F)cccc43)cnc12` [Compound E-39, 4,4,5-trifluoro-3,3-dimethyl-1-(8-methylimidazo[1,2-a]pyridin-3-yl)isoquinoline], the inhibition of growth at 20 ppm (in series [1]; in [2]; in the series with Fusarium culmorum; in the series on Gaeumannomyces graminis; in series [3]; in series [4]) was at least 80% in each case. In addition, the pest or weed control at 200 ppm in [5] is at least 50%.

Source of the values: patent US10906897B2, “Microbiocidal heterobicyclic derivatives” (priority 2015, dated 2021).
